Experiments:
[1] = target: T1, human alpha 7-wt nAChR (Homo sapiens, UniProt P36544); test: Ca2+ flux imaging (FDSS) (Protocol B); type: cell-based; details: for EC50: potentiation of 100 μM choline, compounds 0.01 μM to 30 μM, read-out: a7-PAM-G_[33]_pEC50 pEC50 (converted); for a7-PAM-G_[33]_Eff_Curve_FI % Efficacy / Emax: efficacy of 100 μM choline defined as 100% in the absence of a PAM; for Emax: read-out: a7-PAM-G_[33]_Eff_Curve_FI % Efficacy
T1 construct: expressed in transfected cells
Method in brief: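 Fluo-4AM-loaded cells expressing human α7-wt nAChR, in HBSS with 10 mM HEPES, 5 mM CaCl2, 0.1% BSA, received compound (0.01–30 μM), typically 10 min before 100 μM choline, with calcium flux read in real time. Potentiation is relative to choline alone (100%); EC50 from sigmoidal curves.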

[2] = target: T2, human alpha 7-wt nAChR-expressing GH4C1 cells (Homo sapiens, UniProt P36544); test: Patch-clamp current recording (whole-cell voltage-clamp, PAM type classification); type: cell-based; parameters: key: Type 0 compounds minimally change the effect size of the current elicited by 1 mM choline.; Type 1 compounds enhance the effect size of the current elicited by 1 mM choline but minimally alter the kinetics of the receptor.; Type 2 compounds enhance the effect size of the current elicited by 1 mM choline while reducing the rate and/or the extent of desensitization.; Type 3 compounds enhance the effect size of the current elicited by 1 mM choline. When tested at higher concentrations up to 10 μM they completely inhibit desensitization; Type 4 compounds allow for an initial desensitization of the receptor followed by a re-opening of the receptor during agonist application; details: 1 mM choline
T2 construct: expressed in transfected cells
Description: The compounds of the present invention are classified as type 1-4, based on qualitative kinetic properties, as determined by whole-cell voltage-clamp recordings. This classification is based on the effect of an alpha 7 PAM compound, as described hereinbefore, on the signal elicited by an agonist application. In particular, said agonist is choline at a concentration of 1 mM. In a preferred experimental setting, said alpha 7 PAM compound and choline are simultaneously applied to the cell, as described hereinafter. Desensitization is defined as the closure of the receptor upon activation during the application of the agonist in whole-cell voltage-clamp electrophysiology measurements seen as the reduction of the […] current after initial activation by the agonist.
The definition of the PAM types 1-4 is described hereinafter: • Type 0 compounds minimally change the effect size of the current elicited by 1 mM choline. • Type 1 compounds enhance the effect size of the current elicited by 1 mM choline but minimally alter the kinetics of the receptor. In particular, the rate and the extent of desensitization and of deactivation of the receptor elicited by the agonist is not affected. The compound-modulated response to 1 mM choline, therefore, is close to a linear scaling of the 1 mM choline response in absence of the alpha 7 PAM compound. • Type 2 compounds enhance the effect size of the current elicited by 1 mM choline while reducing the rate and/or the extent of desensitization. Deactivation of the receptor is generally unaffected. • Type 3 compounds enhance the effect size of the current elicited by 1 mM choline. […] Deactivation of the receptor may be slowed down • Type 4 compounds allow for an initial desensitization of the receptor followed by a re-opening of the receptor during agonist application. At low-potency concentrations of the alpha 7 PAM compound, the agonist-induced activation, which is followed by desensitization, can still be separated from the compound-induced re-opening as an initial inward current-maximum. At higher potency concentrations of the alpha 7 PAM compound, the re-opening occurs faster than the closure due to desensitization so that the initial current-maximum disappears.
A compound was considered to have interesting PAM-like activity when the potentiation of the peak current was at least 200% compared to the control choline response (=100%). Such compounds are classified as belonging to a particular PAM type in the Experimental Part. Compounds not meeting the condition are not classified as belonging to a particular PAM-type.
The compounds also have a potentiating effect on the response to choline when measured by whole-cell patch clamp electrophysiology in GH4C1 cells stably over-expressing the human wild-type alpha 7 receptor.
Patch-clamp recording from mammalian cells has provided a powerful means of assessing the function of membrane-bound proteins thought to be subunits of ligand-gated ion channels. Activation of such proteins by endogenous or exogenous ligands cause opening of a pore associated with the receptor through which ions flow down their electrochemical gradient. In the case of the human alpha 7-wt nAChR-expressing GH4C1 recombinant cell line the preferential permeability to calcium of this receptor means that calcium flows into the cell upon activation by ACh, choline and other nicotinic ligands giving rise to a calcium current. Since this receptor rapidly desensitizes in the presence of agonist it is important that an application system is used which is capable of very rapid switching of solutions (<100 ms) to prevent partial or full desensitisation of receptor responses coincident with the time of agonist application. Consequently, a second convenient technique to assess the enhancement of nicotinic efficacy is a patch-clamp recording from human alpha 7-wt nAChR-expressing GH4C1 cells coupled with a rapid-application system. […]

T1 sequence (P36544 23-502): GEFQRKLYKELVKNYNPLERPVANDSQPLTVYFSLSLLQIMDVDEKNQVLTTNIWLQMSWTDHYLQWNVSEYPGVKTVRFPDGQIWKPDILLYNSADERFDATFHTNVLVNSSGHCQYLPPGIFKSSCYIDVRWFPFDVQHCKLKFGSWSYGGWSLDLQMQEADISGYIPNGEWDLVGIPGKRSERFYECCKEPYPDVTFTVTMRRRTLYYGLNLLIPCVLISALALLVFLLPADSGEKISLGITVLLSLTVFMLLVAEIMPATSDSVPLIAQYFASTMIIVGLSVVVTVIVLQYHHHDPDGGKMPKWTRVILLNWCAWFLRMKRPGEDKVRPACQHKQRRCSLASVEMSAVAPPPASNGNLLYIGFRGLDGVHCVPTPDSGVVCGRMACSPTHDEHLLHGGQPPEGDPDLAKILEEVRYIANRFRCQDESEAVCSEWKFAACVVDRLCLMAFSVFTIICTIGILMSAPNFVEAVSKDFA
T2 sequence (P36544 23-502): as above

Compound	EC50 [1] [nM]	melting point [°C]	a7-PAM-G_[33]_Eff_Curve_FI % Efficacy [1] [%]	Emax [1] [%]	PAM_Type PAM type [2]
Cc1cc(-c2sc(N3CCOC(C)C3)nc2CNC(=O)CC2CC2)cc(C)n1 (single isomer, unassigned) [Compound 75, N-[[5-(2,6-dimethyl-4-pyridinyl)-2-[(2R*)-2-methyl-4-morpholinyl]-4-thiazolyl]methyl]-cyclopropaneacetamide]	1020	170	819	–	2
Cc1cc(-c2sc(N3CCOC(C)C3)nc2CNC(=O)C(C)C)cc(C)n1 (single isomer, unassigned) [Compound 76, N-[[5-(2,6-dimethyl-4-pyridinyl)-2-[(2R*)-2-methyl-4-morpholinyl]-4-thiazolyl]methyl]-2-methyl-propanamide]	550	189	–	611	2
Cc1cc(-c2sc(N3C[C@@H](C)O[C@@H](C)C3)nc2CNC(=O)c2cc(C)on2)cc(C)n1 [Compound 3, N-[[2-[(2R,6S)-2,6-dimethyl-4-morpholinyl]-5-(2,6-dimethyl-4-pyridinyl)-4-thiazolyl]methyl]-5-methyl-3-isoxazolecarboxamide]	813	208	–	–	1
COc1cc(-c2sc(N3C[C@@H](C)O[C@@H](C)C3)nc2CNC(=O)CC2CC2)cc(C)n1 [Compound 83, N-[[2-[(2R,6S)-2,6-dimethyl-4-morpholinyl]-5-(2-methoxy-6-methyl-4-pyridinyl)-4-thiazolyl]methyl]-cyclopropaneacetamide]	145	171	–	584	2
COc1cc(-c2sc(N3C[C@@H](C)O[C@@H](C)C3)nc2CNC(=O)C2CCC2)cc(C)n1 [Compound 84, N-[[2-[(2R,6S)-2,6-dimethyl-4-morpholinyl]-5-(2-methoxy-6-methyl-4-pyridinyl)-4-thiazolyl]methyl]-cyclobutanecarboxamide]	102	171	–	443	2
COc1cc(-c2sc(N3C[C@@H](C)O[C@@H](C)C3)nc2CNC(=O)c2cccc(F)c2)cc(C)n1 [Compound 85, N-[[2-[(2R,6S)-2,6-dimethyl-4-morpholinyl]-5-(2-methoxy-6-methyl-4-pyridinyl)-4-thiazolyl]methyl]-3-fluoro-benzamide]	708	172	–	320	0
Cc1cc(-c2sc(N3C[C@@H](C)O[C@@H](C)C3)nc2CNC(=O)c2cc(C)on2)ccn1 [Compound 87, N-[[2-[(2R,6S)-2,6-dimethyl-4-morpholinyl]-5-(2-methyl-4-pyridinyl)-4-thiazolyl]methyl]-5-methyl-3-isoxazolecarboxamide]	813	177	–	646	2
Cc1cc(-c2sc(N3C[C@@H](C)O[C@@H](C)C3)nc2CNC(=O)CC2CC2)ccn1 [Compound 88, N-[[2-[(2R,6S)-2,6-dimethyl-4-morpholinyl]-5-(2-methyl-4-pyridinyl)-4-thiazolyl]methyl]-cyclopropaneacetamide]	562	177	–	736	2
Cc1cc(-c2sc(N3CCOC(C)(C)C3)nc2CNC(=O)CC2CC2)cc(C)n1 [Compound 156, N-[[2-(2,2-dimethyl-4-morpholinyl)-5-(2,6-dimethyl-4-pyridinyl)-4-thiazolyl]methyl]-cyclopropaneacetamide]	1260	135	–	–	0
Cc1cc(-c2sc(N3CCOC(C)(C)C3)nc2CNC(=O)c2ccc(F)cc2C)cc(C)n1 [Compound 157, N-[[2-(2,2-dimethyl-4-morpholinyl)-5-(2,6-dimethyl-4-pyridinyl)-4-thiazolyl]methyl]-4-fluoro-2-methyl-benzamide]	224	197	–	–	2

Further lines, with some results ahead:

EC50 [1] [nM]	melting point [°C]	a7-PAM-G_[33]_Eff_Curve_FI % Efficacy [1] [%]	Emax [1] [%]	Compound	PAM_Type PAM type [2]
692	188	–	–	Cc1cc(-c2sc(N3CCOC(C)C3)nc2CNC(=O)C(C)C)cc(C)n1 (single isomer, unassigned) [Compound 71, N-[[5-(2,6-dimethyl-4-pyridinyl)-2-[(2S*)-2-methyl-4-morpholinyl]-4-thiazolyl]methyl]-2-methyl-propanamide]	2
1170	169	919	–	Cc1cc(-c2sc(N3CCOC(C)C3)nc2CNC(=O)CC2CC2)cc(C)n1 (single isomer, unassigned) [Compound 78, N-[[5-(2,6-dimethyl-4-pyridinyl)-2-[(2S*)-2-methyl-4-morpholinyl]-4-thiazolyl]methyl]-cyclopropaneacetamide]	2
1410	184	–	927	Cc1cc(C(=O)NCc2nc(N3C[C@@H](C)O[C@@H](C)C3)sc2-c2cc(C)nc(C)c2)on1 [Compound 4, N-[[2-[(2R,6S)-2,6-dimethyl-4-morpholinyl]-5-(2,6-dimethyl-4-pyridinyl)-4-thiazolyl]methyl]-3-methyl-5-isoxazolecarboxamide]	2
871	176	–	498	CCC(=O)NCc1nc(N2C[C@@H](C)O[C@@H](C)C2)sc1-c1cc(C)nc(C)c1 [Compound 39, N-[[2-[(2R,6S)-2,6-dimethyl-4-morpholinyl]-5-(2,6-dimethyl-4-pyridinyl)-4-thiazolyl]methyl]-propanamide]	2
324	203	–	459	COc1cc(-c2sc(N3C[C@@H](C)O[C@@H](C)C3)nc2CNC(=O)c2cc(C)on2)cc(C)n1 [Compound 82, N-[[2-[(2R,6S)-2,6-dimethyl-4-morpholinyl]-5-(2-methoxy-6-methyl-4-pyridinyl)-4-thiazolyl]methyl]-5-methyl-3-isoxazolecarboxamide]	1
490	155	–	491	Cc1cc(-c2sc(N3C[C@@H](C)O[C@@H](C)C3)nc2CNC(=O)c2ccccc2Cl)ccn1 [Compound 90, 2-chloro-N-[[2-[(2R,6S)-2,6-dimethyl-4-morpholinyl]-5-(2-methyl-4-pyridinyl)-4-thiazolyl]methyl]-benzamide]	2
1860	148	–	430	Cc1ccc(-c2sc(N3C[C@@H](C)O[C@@H](C)C3)nc2CNC(=O)c2cc(C)on2)cn1 [Compound 118, N-[[2-[(2R,6S)-2,6-dimethyl-4-morpholinyl]-5-(6-methyl-3-pyridinyl)-4-thiazolyl]methyl]-5-methyl-3-isoxazolecarboxamide]	0

From patent publication US8637510B2, “Morpholinothiazoles as alpha 7 positive allosteric modulators” (Janssen Pharmaceutica NV, priority 2009, dated 2014)
